Assay results published in patent US7812036B2, “Androgens” (N.V. Organon, priority 2004, dated 2010).

Biological target: T1, human androgen receptor (Homo sapiens, UniProt P10275)
T1 construct: expressed in transfected cells; host or cells: Chinese hamster ovary (CHO) cells, line CHO-AR-pMMTV-LUC 1G12-A5-CA
T1 sequence (P10275 1-920): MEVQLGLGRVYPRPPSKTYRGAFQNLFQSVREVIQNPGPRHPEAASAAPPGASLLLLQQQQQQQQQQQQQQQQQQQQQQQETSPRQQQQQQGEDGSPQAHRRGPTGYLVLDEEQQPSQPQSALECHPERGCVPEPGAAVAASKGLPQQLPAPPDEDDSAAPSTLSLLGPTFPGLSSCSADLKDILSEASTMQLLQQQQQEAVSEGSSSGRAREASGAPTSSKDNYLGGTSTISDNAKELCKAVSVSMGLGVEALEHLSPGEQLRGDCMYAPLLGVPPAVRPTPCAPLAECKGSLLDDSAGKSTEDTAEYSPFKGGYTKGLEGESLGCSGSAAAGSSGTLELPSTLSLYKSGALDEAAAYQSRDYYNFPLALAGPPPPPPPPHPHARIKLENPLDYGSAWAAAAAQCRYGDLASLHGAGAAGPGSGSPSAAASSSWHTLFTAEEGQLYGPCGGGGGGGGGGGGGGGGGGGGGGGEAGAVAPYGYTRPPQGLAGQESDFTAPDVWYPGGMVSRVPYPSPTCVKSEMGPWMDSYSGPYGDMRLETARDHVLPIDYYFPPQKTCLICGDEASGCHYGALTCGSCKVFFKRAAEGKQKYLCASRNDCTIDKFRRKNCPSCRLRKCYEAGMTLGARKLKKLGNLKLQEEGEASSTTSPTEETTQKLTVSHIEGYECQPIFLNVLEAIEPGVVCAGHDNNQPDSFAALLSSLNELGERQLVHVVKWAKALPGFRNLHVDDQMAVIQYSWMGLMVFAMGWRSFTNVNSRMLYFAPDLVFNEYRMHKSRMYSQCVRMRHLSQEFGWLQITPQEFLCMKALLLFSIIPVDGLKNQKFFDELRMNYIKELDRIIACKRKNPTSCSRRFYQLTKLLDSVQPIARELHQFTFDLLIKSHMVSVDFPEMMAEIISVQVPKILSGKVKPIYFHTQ
Assay: Androgenic activity (potency) in vitro bioassay, CHO-AR-pMMTV-LUC 1G12-A5-CA cells, luciferase reporter
Assay type: cell-based
Settings: CHO cells stably transfected with human androgen receptor and MMTV-luciferase reporter; in the presence of 0.1 μmol/l onapristone; potencies expressed as percentage of DHT activity (maximal efficacy with 100 nmol/l DHT set as 100%)
Procedure: The androgenic activity (potency) of the compounds of the invention was determined in an in vitro bioassay of Chinese hamster ovary (CHO) cells stably transfected with the human androgen receptor expression plasmid and a reporter plasmid in which the MMTV promoter is linked to the luciferase reporter gene. The cell line CHO-AR-pMMTV-LUC 1G12-A5-CA is described in Schoonen et al. (J. Steroid Biochem. Molec. Biol. 2002; 74: 213-222). The androgen receptor activity of compounds was determined in the presence of 0.1 μmol/l onapristone. The maximal efficacy in the presence of 100 nmol/1 DHT was set as 100%. The potencies are expressed as percentage of DHT activity.

CNc1ccc2c(Sc3ccccc3[N+](=O)[O-])cn(Cc3cc(F)cc(F)c3)c2c1 [Example 1]
Potency (%): 15.0%

CNc1ccc2c(Sc3ccccc3[N+](=O)[O-])cn(Cc3ccccn3)c2c1 [Example 2, Methyl-[3-(2-nitro-phenylsulfanyl)-1-pyridin-2-ylmethyl-1H-indol-6-yl]-amine]
Potency (%): 9.9%

CNc1ccc2c(Sc3ccccc3[N+](=O)[O-])cn(Cc3cccnc3)c2c1 [Example 3, Methyl-[3-(2-nitro-phenylsulfanyl)-1-pyridine-3-ylmethyl-1H-indol-6-yl]-amine]
Potency (%): 13.4%

CNc1ccc2c(Sc3ccccc3[N+](=O)[O-])cn(Cc3ccccc3)c2c1 [Example 5a, [1-Benzyl-3-(2-nitro-phenylsulfanyl)-1H-indol-6-yl]-methyl-amine]
Potency (%): 9.2%

CNc1ccc2c(Sc3ccccc3[N+](=O)[O-])cn(Cc3ccccc3F)c2c1 [Example 5b]
Potency (%): 0.4%

CNc1ccc2c(Sc3ccccc3[N+](=O)[O-])cn(Cc3cccc(F)c3)c2c1 [Example 5c, [1-(3-Fluoro-benzyl)-3-(2-nitro-phenylsulfanyl)-1H-indol-6-yl]-methyl-amine]
Potency (%): 13.3%

CNc1ccc2c([S+]([O-])c3ccccc3[N+](=O)[O-])cn(Cc3ccc(F)cc3)c2c1 (centres unmarked) [Example 5d]
Potency (%): 4.3%

CNc1ccc2c(Sc3ccccc3[N+](=O)[O-])cn(Cc3ccncc3)c2c1 [Example 5e, Methyl-[3-(2-nitro-phenylsulfanyl)-1-pyridin-4-ylmethyl-1H-indol-6-yl]-amine]
Potency (%): 35.1%

CNc1ccc2c(Sc3ccccc3[N+](=O)[O-])cn(Cc3ncccn3)c2c1 [Example 5f, Methyl-[3-(2-nitro-phenylsulfanyl)-1-pyrimidin-2-ylmethyl-1H-indol-6-yl]-amine]
Potency (%): 1.8%

CNc1ccc2c(Sc3ccccc3[N+](=O)[O-])cn(Cc3cncnc3)c2c1 [Example 5g, Methyl-[3-(2-nitro-phenylsulfanyl)-1-pyrimidin-5-ylmethyl-1H-indol-6-yl]-amine]
Potency (%): 21.6%

CNc1ccc2c(Sc3ccccc3[N+](=O)[O-])cn(Cc3ccco3)c2c1 [Example 5h, [1-Furan-2-ylmethyl-3-(2-nitro-phenylsulfanyl)-1H-indol-6-yl]-methyl-amine]
Potency (%): 16.5%

CNc1ccc2c(Sc3ccccc3[N+](=O)[O-])cn(Cc3ccoc3)c2c1 [Example 5i, [1-Furan-3-ylmethyl-3-(2-nitro-phenylsulfanyl)-1H-indol-6-yl]-methyl-amine]
Potency (%): 17.9%

CNc1ccc2c(Sc3ccccc3[N+](=O)[O-])cn(Cc3cocn3)c2c1 [Example 5j, Methyl-[3-(2-nitro-phenylsulfanyl)-1-oxazol-4-ylmethyl-1H-indol-6-yl]-amine]
Potency (%): 14.8%

CNc1ccc2c(Sc3ccccc3[N+](=O)[O-])cn(Cc3ccon3)c2c1 [Example 5k, [1-Isoxazol-3-ylmethyl-3-(2-nitro-phenylsulfanyl)-1H-indol-6-yl]-methyl-amine]
Potency (%): 11.9%

CNc1ccc2c(Sc3ccccc3[N+](=O)[O-])cn(Cc3cscn3)c2c1 [Example 5l, Methyl-[3-(2-nitro-phenylsulfanyl)-1-thiazol-4-ylmethyl-1H-indol-6-yl]-amine]
Potency (%): 4.8%

CNc1ccc2c(Sc3ccccc3[N+](=O)[O-])cn(Cc3ncco3)c2c1 [Example 5m, Methyl-[3-(2-nitro-phenylsulfanyl)-1-oxazol-2-ylmethyl-1H-indol-6-yl]-amine]
Potency (%): 3.2%

CNc1ccc2c(Sc3ccccc3[N+](=O)[O-])cn(Cc3ccno3)c2c1 [Example 5n, [1-Isoxazol-5-ylmethyl-3-(2-nitro-phenylsulfanyl)-1H-indol-6-yl]-methyl-amine]
Potency (%): 19.4%

CNc1ccc2c(Sc3ccccc3[N+](=O)[O-])cn(Cc3cccc(Cl)c3)c2c1 [Example 5p, [1-(3-Chloro-benzyl)-3-(2-nitro-phenylsulfanyl)-1H-indol-6-yl]-methyl-amine]
Potency (%): 1.3%

CNc1ccc2c(Sc3ccccc3[N+](=O)[O-])cn(Cc3cccc(C(F)(F)F)c3)c2c1 [Example 5q, Methyl-[3-(2-nitro-phenylsulfanyl)-1-(3-trifluoromethyl-benzyl)-1H-indol-6-yl]-amine]
Potency (%): 1.0%

CNc1ccc2c(Sc3ccccc3[N+](=O)[O-])cn(Cc3cccc(C#N)c3)c2c1 [Example 5r, 3-[6-Methylamino-3-(2-nitro-phenylsulfanyl)-1-indol-1-ylmethyl]-benzonitrile]
Potency (%): 11.4%

CNc1ccc2c(Sc3ccccc3[N+](=O)[O-])cn(Cc3cc(C#N)cc(C#N)c3)c2c1 [Example 5s, 5-[6-Methylamino-3-(2-nitro-phenylsulfanyl)-indol-1-ylmethyl]-isophthalonitrile]
Potency (%): 5.9%

CNc1ccc2c(Sc3ccccc3C#N)cn(Cc3cc(F)cc(F)c3)c2c1 [Example 6]
Potency (%): 10.5%

CNc1ccc2c(Sc3ccccc3C#N)cn(Cc3ccccn3)c2c1 [Example 7, 2-(6-Methylamino-1-pyridin-2-ylmethyl-1H-indol-3-ylsulfanyl)-benzonitrile]
Potency (%): 1.1%

CNc1ccc2c(Sc3ccccc3C(C)=O)cn(Cc3cc(F)cc(F)c3)c2c1 [Example 8, 1-{2-[1-(3,5-Difluoro-benzyl)-6-methylamino-1H-indol-3-ylsulfanyl]-phenyl}-ethanone]
Potency (%): 0.2%

CNc1ccc2c(Sc3ccccc3C(=O)OC)cn(Cc3cc(F)cc(F)c3)c2c1 [Example 9]
Potency (%): 0.7%

CNc1ccc2c(Sc3ccccc3CO)cn(Cc3cc(F)cc(F)c3)c2c1 [Example 10]
Potency (%): 4.3%

CNc1ccc2c(Sc3ccccn3)cn(Cc3cc(F)cc(F)c3)c2c1 [Example 11, [1-(3,5-Difluoro-benzyl)-3-(pyridin-2-ylsulfanyl)-1H-indol-6-yl]-methyl-amine]
Potency (%): 6.6%

CNc1ccc2c(Sc3ncccc3[N+](=O)[O-])cn(Cc3cc(F)cc(F)c3)c2c1 [Example 12, [1-(3,5-Difluoro-benzyl)-3-(3-nitro-pyridin-2-ylsulfanyl)-1H-indol-6-yl]-methyl-amine]
Potency (%): 5.7%

CNc1ccc2c(S(=O)(=O)c3ccccc3[N+](=O)[O-])cn(Cc3cc(F)cc(F)c3)c2c1 [Example 13, [1-(3,5-Difluoro-benzyl)-3-(2-nitro-benzenesulfonyl)-1H-indol-6-yl]-methyl-amine]
Potency (%): 18.9%

CNc1ccc2c(S(=O)(=O)c3ccccc3[N+](=O)[O-])cn(Cc3ccccn3)c2c1 [Example 14, Methyl-[3-(2-nitro-phenylsulfonyl)-1-pyridin-2-ylmethyl-1H-indol-6-yl]-amine]
Potency (%): 1.9%

CN(C)c1ccc2c(Sc3ccccc3[N+](=O)[O-])cn(Cc3cc(F)cc(F)c3)c2c1 [Example 18]
Potency (%): 2.7%

CCNc1ccc2c(Sc3ccccc3[N+](=O)[O-])cn(Cc3cc(F)cc(F)c3)c2c1 [Example 19a, [1-(3,5-Difluoro-benzyl)-3-(2-nitro-phenylsulfanyl)-1H-indol-6-yl]-ethyl-amine]
Potency (%): 2.7%

C=CCNc1ccc2c(Sc3ccccc3[N+](=O)[O-])cn(Cc3cc(F)cc(F)c3)c2c1 [Example 19b]
Potency (%): 2.4%

CN(C)c1ccc2c(Sc3ccccc3[N+](=O)[O-])cn(Cc3ccccn3)c2c1 [Example 19c, Dimethyl-[3-(2-nitro-phenylsulfanyl)-1-pyridin-2-ylmethyl-1H-indol-6-yl]-amine]
Potency (%): 1.2%

CCNc1ccc2c(Sc3ccccc3[N+](=O)[O-])cn(Cc3ccccn3)c2c1 [Example 19d, Ethyl-[3-(2-nitro-phenylsulfanyl)-1-pyridin-2-ylmethyl-1H-indol-6-yl]-amine]
Potency (%): 6.7%
